# According to patent publication US9073940B2, “Tricyclic pyrazol amine derivatives” (MERCK SERONO SA, priority 2009, dated 2015):
# Tested on: 4 PI3K isoforms (Human recombinant GST-PI3K)
# Test: PI3K scintillation proximity assay, best IC50 obtained with the four isoforms (alpha, beta, delta, gamma)
# Format: biochemical
# Details: best IC50 obtained with the four isoforms of PI3K; read-out: Best potency measured on the 4 PI3K isoforms
row,IC50 [nM],Structure (SMILES)
1,830,"O=C(c1nn([C@@H]2CCCN(CC3CCOCC3)C2)c2c1CS(=O)(=O)c1ncccc1-2)N1CCOCC1 (single isomer, unassigned) [Example 371, 3-(morpholin-4-ylcarbonyl)-1-[1-(tetrahydro-2H-pyran-4-ylmethyl)piperidin-3-yl]-1,4-dihydropyrazolo[3′,4′:4,5]thiopyrano[2,3-b]pyridine 5,5-dioxide]"
2,200,"O=C(c1nn([C@H]2CCCN(CCF)C2)c2c1CS(=O)(=O)c1ccccc1-2)N1CCOCC1 (single isomer, unassigned) [Example 372, 1-[1-(2-fluoroethyl)piperidin-3-yl]-3-(morpholin-4-ylcarbonyl)-1,4-dihydrothiochromeno[4,3-c]pyrazole 5,5-dioxide]"
3,10300,"COc1ccc2c(c1)S(=O)(=O)Cc1c(C(=O)N3CCOCC3)nn([C@@H]3CCCN(CCC4CCOCC4)C3)c1-2 (single isomer, unassigned) [Example 373]"
4,13,"O=C(c1nn([C@H]2CCCN(CC3CCOCC3)C2)c2c1CS(=O)(=O)c1ncccc1-2)N1CCOCC1 (single isomer, unassigned) [Example 376, 3-(morpholin-4-ylcarbonyl)-1-[1-(tetrahydro-2H-pyran-4-ylmethyl)piperidin-3-yl]1,4-dihydropyrazolo[3′,4′:4,5]thiopyrano[2,3-b]pyridine 5,5-dioxide]"
5,101,"CC1COCCN1CCN1CCC[C@H](n2nc(C(=O)N3CCOCC3)c3c2-c2ccccc2S(=O)(=O)C3)C1 (single isomer, unassigned) [Example 377, 1-{1-[2-(3-methylmorpholin-4-yl)ethyl]piperidin-3-yl}-3-(morpholin-4-ylcarbonyl)-1,4-dihydrothiochromeno[4,3-c]pyrazole 5,5-dioxide]"
6,65,"C[C@@H]1CN(CCN2CCC[C@H](n3nc(C(=O)N4CCOCC4)c4c3-c3ccccc3S(=O)(=O)C4)C2)C[C@H](C)O1 (single isomer, unassigned) [Example 378]"
7,2930,"O=C(c1nn([C@@H]2CCCN(C3CCCOC3)C2)c2c1CS(=O)(=O)c1ncccc1-2)N1CCOCC1 (single isomer, unassigned) [Example 379, 3-(morpholin-4-ylcarbonyl)-1-[1-(tetrahydro-2H-pyran-3-yl)piperidin-3-yl]-1,4-dihydropyrazolo[3′,4′:4,5]thiopyrano[2,3-b]pyridine 5,5-dioxide]"
8,36,"O=C(c1nn([C@H]2CCCN(C3CCCOC3)C2)c2c1CS(=O)(=O)c1ncccc1-2)N1CCOCC1 (single isomer, unassigned) [Example 381, 3-(morpholin-4-ylcarbonyl)-1-[1-(tetrahydro-2H-pyran-3-yl)piperidin-3-yl]-1,4-dihydropyrazolo[3′,4′:4,5]thiopyrano[2,3-b]pyridine 5,5-dioxide]"
9,15,"COc1ccc2c(c1)S(=O)(=O)Cc1c(C(=O)N3CCOCC3)nn([C@H]3CCCN(CCN4CC(F)(F)C4)C3)c1-2 (single isomer, unassigned) [Example 382, 1-{1-[2-(3,3-difluoroazetidin-1-yl)ethyl]piperidin-3-yl}-7-methoxy-3-(morpholin-4-ylcarbonyl)-1,4-dihydrothiochromeno[4,3-c]pyrazole 5,5-dioxide]"
10,24,"COc1ccc2c(c1)S(=O)(=O)Cc1c(C(=O)N3CCOCC3)nn([C@H]3CCCN(CCN4CCOCC4)C3)c1-2 (single isomer, unassigned) [Example 383, 7-methoxy-3-(morpholin-4-ylcarbonyl)-1-[1-(2-morpholin-4-ylethyl)piperidin-3-yl]-1,4-dihydrothiochromeno[4,3-c]pyrazole 5,5-dioxide]"
11,19,"COc1ccc2c(c1)S(=O)(=O)Cc1c(C(=O)N3CCOCC3)nn([C@H]3CCCN(CCN4CCC(F)CC4)C3)c1-2 (single isomer, unassigned) [Example 384, 1-{1-[2-(4-fluoropiperidin-1-yl)ethyl]piperidin-3-yl}-7-methoxy-3-(morpholin-4-ylcarbonyl)-1,4-dihydrothiochromeno[4,3-c]pyrazole 5,5-dioxide]"
